# The source made the active and inactive calls. The rule behind the calls is not given here.
# Key:
# [1] = molecular target: T1, GABA-C receptor (Homo sapiens) (UniProt P28476+A8MPY1+P24046); assay: Inhibition of mammalian Gamma-aminobutyric acid type C (GABA-C) receptor, potent antagonist; assay type: functional
# [2] = molecular target: GABA-A receptor; anion channel (Homo sapiens) (UniProt P14867+P47870+P18507+P28472+P48169+Q99928+Q9UN88+P34903+O00591+O14764+Q8N1C3+P18505+P78334+P47869+P31644+Q16445); assay: Inhibition of mammalian Gamma-aminobutyric acid A (GABA-A) receptor (inactive); assay type: protein-complex assay
# [3] = Inhibition of rat brain Gamma-aminobutyric acid A (GABA-A) receptor expressed in oocytes, weak antagonist; assay type: functional; conditions: Oocyte
# GABA B receptor = GABA B receptor (Rattus norvegicus, UniProt O88871+Q9Z0U4); assay: Inhibition of rat hippocampal Gamma-aminobutyric acid type B receptor (weak agonist); assay type: functional, tissue-based, Hippocampus
# [4] = molecular target: T1, GABA-C receptor (Homo sapiens); assay: Inhibition of human Gamma-aminobutyric acid type C (GABA-C) receptor, potent antagonist; assay type: functional
# [5] = molecular target: T1, GABA-C receptor (Homo sapiens); assay: Inhibition of mammalian Gamma-aminobutyric acid type C (GABA-C) receptor, partial agonist; assay type: functional
# [6] = molecular target: GABA-B receptor (Homo sapiens) (UniProt Q9UBS5+O75899); assay: Inhibition of mammalian Gamma-aminobutyric acid type B receptor (Inactive); assay type: protein-complex assay
# [7] = molecular target: GABA-A receptor; anion channel; assay: Inhibition of mammalian Gamma-aminobutyric acid A (GABA-A) receptor, agonist; assay type: functional
# T1 sequence (A8MPY1 whole entry, looked up): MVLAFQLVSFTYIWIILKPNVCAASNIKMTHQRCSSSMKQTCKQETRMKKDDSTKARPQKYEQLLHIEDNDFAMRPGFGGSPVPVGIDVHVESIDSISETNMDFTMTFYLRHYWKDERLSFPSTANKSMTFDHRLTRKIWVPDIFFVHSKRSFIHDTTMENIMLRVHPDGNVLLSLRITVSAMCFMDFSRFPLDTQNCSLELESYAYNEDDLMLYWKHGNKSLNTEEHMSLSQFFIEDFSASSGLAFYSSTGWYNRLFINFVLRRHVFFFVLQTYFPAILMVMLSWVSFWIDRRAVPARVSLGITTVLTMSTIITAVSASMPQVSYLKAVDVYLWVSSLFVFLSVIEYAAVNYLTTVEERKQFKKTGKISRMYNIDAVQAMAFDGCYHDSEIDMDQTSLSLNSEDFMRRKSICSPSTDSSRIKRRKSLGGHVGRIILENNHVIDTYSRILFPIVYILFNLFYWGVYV
# T1 sequence (P24046 whole entry, looked up): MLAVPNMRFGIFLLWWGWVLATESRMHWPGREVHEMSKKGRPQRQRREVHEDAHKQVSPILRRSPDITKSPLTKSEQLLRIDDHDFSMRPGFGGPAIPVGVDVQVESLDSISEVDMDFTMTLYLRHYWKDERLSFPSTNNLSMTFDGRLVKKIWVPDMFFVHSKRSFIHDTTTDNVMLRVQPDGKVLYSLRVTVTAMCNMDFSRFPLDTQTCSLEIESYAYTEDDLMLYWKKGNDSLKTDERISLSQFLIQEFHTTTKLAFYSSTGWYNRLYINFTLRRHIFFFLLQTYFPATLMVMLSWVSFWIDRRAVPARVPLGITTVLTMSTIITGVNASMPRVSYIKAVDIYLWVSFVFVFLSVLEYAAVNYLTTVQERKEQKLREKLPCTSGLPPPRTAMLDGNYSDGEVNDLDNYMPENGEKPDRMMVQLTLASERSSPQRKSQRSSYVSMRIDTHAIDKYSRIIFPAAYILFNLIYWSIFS
# T1 sequence (P28476 whole entry, looked up): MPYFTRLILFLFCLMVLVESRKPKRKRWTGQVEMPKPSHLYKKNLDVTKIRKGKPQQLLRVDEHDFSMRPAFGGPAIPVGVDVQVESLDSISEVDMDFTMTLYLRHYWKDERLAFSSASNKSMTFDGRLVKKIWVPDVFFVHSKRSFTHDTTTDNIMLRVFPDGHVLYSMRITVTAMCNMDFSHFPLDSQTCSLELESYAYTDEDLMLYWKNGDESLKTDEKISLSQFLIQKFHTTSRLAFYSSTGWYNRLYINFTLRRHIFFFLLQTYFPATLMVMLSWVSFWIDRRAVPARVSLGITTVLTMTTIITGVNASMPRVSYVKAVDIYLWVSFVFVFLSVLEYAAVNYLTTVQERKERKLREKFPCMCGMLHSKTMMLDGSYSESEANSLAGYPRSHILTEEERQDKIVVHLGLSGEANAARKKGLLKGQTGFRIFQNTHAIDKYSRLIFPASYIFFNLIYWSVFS
# GABA B receptor, sequence (Q9Z0U4 whole entry): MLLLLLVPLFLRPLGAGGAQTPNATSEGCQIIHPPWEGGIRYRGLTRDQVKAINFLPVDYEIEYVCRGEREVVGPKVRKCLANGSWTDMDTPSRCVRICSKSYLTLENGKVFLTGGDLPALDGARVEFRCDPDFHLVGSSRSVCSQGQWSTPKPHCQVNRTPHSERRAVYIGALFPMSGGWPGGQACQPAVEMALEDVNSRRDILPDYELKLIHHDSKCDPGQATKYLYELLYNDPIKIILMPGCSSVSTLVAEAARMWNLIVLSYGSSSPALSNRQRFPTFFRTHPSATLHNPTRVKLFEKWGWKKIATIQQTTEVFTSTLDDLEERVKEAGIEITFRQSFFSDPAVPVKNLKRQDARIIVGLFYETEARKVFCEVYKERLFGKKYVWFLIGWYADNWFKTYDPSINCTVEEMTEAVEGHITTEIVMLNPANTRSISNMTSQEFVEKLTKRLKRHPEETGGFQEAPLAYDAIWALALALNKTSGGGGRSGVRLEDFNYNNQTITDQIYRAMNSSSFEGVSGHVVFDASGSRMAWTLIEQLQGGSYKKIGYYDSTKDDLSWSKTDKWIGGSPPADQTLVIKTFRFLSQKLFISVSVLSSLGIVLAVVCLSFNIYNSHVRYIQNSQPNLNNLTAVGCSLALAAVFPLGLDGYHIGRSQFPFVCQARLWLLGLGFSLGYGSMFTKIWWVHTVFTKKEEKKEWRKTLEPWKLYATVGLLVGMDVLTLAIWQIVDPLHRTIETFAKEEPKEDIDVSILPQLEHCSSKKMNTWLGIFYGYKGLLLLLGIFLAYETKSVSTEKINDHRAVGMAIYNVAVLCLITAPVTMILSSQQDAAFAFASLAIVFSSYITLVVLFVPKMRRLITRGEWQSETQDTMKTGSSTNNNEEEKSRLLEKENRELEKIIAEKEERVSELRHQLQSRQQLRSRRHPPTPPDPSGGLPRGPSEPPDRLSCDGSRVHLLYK
# GABA B receptor, sequence (O88871 whole entry): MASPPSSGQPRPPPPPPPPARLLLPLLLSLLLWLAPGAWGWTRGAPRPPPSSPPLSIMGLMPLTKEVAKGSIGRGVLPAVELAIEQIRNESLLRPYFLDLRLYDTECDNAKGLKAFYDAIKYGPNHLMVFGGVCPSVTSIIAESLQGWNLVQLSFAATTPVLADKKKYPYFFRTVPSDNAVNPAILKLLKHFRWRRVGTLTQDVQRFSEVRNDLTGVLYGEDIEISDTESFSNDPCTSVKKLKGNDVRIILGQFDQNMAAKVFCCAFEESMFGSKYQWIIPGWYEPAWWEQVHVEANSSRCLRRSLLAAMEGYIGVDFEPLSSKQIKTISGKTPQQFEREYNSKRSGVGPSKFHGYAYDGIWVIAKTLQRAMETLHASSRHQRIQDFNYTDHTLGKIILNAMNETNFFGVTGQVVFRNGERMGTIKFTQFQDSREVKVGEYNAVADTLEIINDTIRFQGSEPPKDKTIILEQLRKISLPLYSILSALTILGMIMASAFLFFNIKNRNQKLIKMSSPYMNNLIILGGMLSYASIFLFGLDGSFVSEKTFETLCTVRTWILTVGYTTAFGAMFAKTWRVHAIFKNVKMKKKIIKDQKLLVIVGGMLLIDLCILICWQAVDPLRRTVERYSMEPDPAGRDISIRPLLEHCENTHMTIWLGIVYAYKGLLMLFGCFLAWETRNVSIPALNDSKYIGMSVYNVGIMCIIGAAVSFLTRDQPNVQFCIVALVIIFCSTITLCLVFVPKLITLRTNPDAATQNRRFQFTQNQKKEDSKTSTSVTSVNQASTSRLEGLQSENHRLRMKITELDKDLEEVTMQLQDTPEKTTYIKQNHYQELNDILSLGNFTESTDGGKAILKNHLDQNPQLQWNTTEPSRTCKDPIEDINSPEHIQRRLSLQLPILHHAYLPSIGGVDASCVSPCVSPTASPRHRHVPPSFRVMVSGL
smiles,measurement,setting,value
CP(=O)(O)CCCN,Kb,[1],0.8 µM
same,Activity,[2],inactive
CP(=O)(O)C1=CCNCC1,Kb,[3],320 µM
same,EC50,GABA B receptor,500 µM
same,Kb,[4],2.1 µM
O=C(O)C1=CCNCC1 [ISOGUVACINE],Kb,[5],99 µM
same,Activity,[6],inactive
same,EC50,[7],310 µM

# Reference: ChEMBL document CHEMBL1150031, “The first selective antagonist for a GABAC receptor” (Bioorg Med Chem Lett, 1996)
